According to US20240218242A1, “COMPOUND, FLUORESCENT DYE, KIT, AND METHOD FOR DETECTING CELLS” (NATIONAL UNIVERSITY CORPORATION KOCHI UNIVERSITY, priority 2021, published 2024):

What was measured:
[1] = Evaluation of light stability (fluorescence intensity over time under UV excitation); assay type: physicochemical; details: 3000 seconds after excitation by UV irradiation; toluene; 5 μM; excitation 378 nm; detection 483 nm
Procedure: The light stability of the compound A obtained in Example 1 was evaluated.
The light stability of the compound A and that of a commercially available solvatochromic dye Laurdan were compared (solvent: toluene; each dye concentration: 5 μM; excitation wavelength: 378 nm; detection wavelength: 483 nm). Laurdan is a compound with a CAS number of 74515-25-6. The fluorescence spectrum measurement was carried out using the same instrument as that used in Example 2.

[2] = system: human skin tissue (frozen tissue); assay: Two-photon fluorescence imaging of stained human skin tissue; details: 10 μM; excitation 960 nm; in combination with clearing reagent (LUCID)
Procedure: Human skin tissue (frozen tissue) imaging was performed using the compound A obtained in Example 1. More specifically, two-photon fluorescence imaging of human skin tissues (frozen tissues) stained with the compound A of the Example was performed (compound A concentration: 10 μM, excitation wavelength: 960 nm; a clearing reagent (LUCID) was used in combination.).
For microscopy, a two-photon microscope A1R MP+(NIKON) was used. In the measurement, 960 nm was used as a laser light source for excitation for the compound A. Scanning was performed to a depth of 100 μm of the sample. The three-dimensional reconstructed image is obtained by processing the obtained data with attached software.
Human skin tissues were embedded in paraffin and then cut out to prepare tissue sections. The preparation of the sections (thickness: 5 μm) was performed by the procedure usually performed in histopathological examination. For staining with the compound A dye, deparaffinization was performed by a conventional method, and then staining was performed by immersion in the aforementioned dye at room temperature for several days to one week. In practice, the tissues were sufficiently stained by immersion in the dye at room temperature for 2 to 3 days.

[3] = system: human keratinocyte K16 (P4); assay: Toxicity evaluation (MTT test); assay type: cell-based; details: 100 μM, 24 hours
Procedure: The toxicity of fluorescence imaging of cells using the compound A obtained in Example 1 was evaluated. More specifically, the toxicity evaluation (MTT test) of the compound A to human keratinocyte K16 (P4) was performed. As a toxicity evaluation procedure, first, a medium containing the compound A at a maximum concentration of 100 μM (maximum DMSO concentration=0.5% v/v) was added to cells to prepare a 2-fold dilution series. After 24 hours, the medium was discarded and an MTT reagent ([…]) was added. After 3 hours, a 10% SDS reagent was added to the cells, and the absorbance at 570 nm was measured the next day.

[4] = Photophysical properties (absorption spectrum, fluorescence spectrum, fluorescence quantum yield) in organic solvents; assay type: physicochemical; details: 5 μM
Procedure: The absorption spectrum and fluorescence spectrum in organic solvents of the compound A obtained in Example 1 were measured.
(§1) The absorption spectrum and the fluorescence spectrum were measured using a UV-Visible/NIR spectrophotometer (V-670 manufactured by JASCO Corporation) and a spectrofluorometer (FP6600 manufactured by JASCO Corporation), respectively. The fluorescence quantum yield was measured using an absolute PL quantum yield spectrometer (Hamamatsu Photonics K.K.: C 9920-02V). The concentration of the compound A was 5 μM for each solvent. For solvent species, toluene, dichloromethane, DMSO, and ethanol were used.
The absorption spectrum and fluorescence spectrum in organic solvents of the compound B obtained in Example 8 were measured.
as §1, with “Corporation), respectively, in the same manner as in Example 2.” for “Corporation), respectively.”, “compound B” for “compound A”
The absorption spectrum and fluorescence spectrum in organic solvents of the compound C obtained in Example 10 were measured.
as §1, with “Corporation), respectively, in the same manner as in Example 2.” for “Corporation), respectively.”, “compound C” for “compound A”

[5] = system: human prostate cancer cells (PC3); assay: Confocal fluorescence imaging of stained cells; assay type: cell-based; details: 500 nM, 30 minutes at room temperature; excitation 405 nm; green (490-590 nm) and red (655-755 nm) channels
Procedure: Fluorescence imaging of cells was performed using the compound A obtained in Example 1. More specifically, confocal fluorescence imaging of human prostate cancer cells (PC3) stained with the compound A of the Example was performed (compound A concentration: 500 nM; excitation wavelength: 405 nm).
For microscopic observation, a confocal scanning laser microscope (manufactured by Olympus Corporation, FV1000-D) was used. In the measurement, fluorescence was detected in a green (490-590 nm) channel and a red (655-755 nm) channel using a 405 nm laser light source.
As the human prostate cancer cells used for the observation, cultured cells were used. The compound A (500 nM) was added to the cultured cells, and the mixture was allowed to stand at room temperature for 30 minutes, and then imaging was performed.

[6] = Fluorescence spectrum measurement in lipid membrane (liposome); assay type: physicochemical; details: compound 2 μM, lipid 200 μM
Procedure: The fluorescence spectrum of the compound A obtained in Example 1 in a lipid membrane (liposome) was measured. More specifically, the fluorescence spectrum of the compound A in a liposome composed of 1,2-dioleoyl-sn-glycero-3-phosphocholine (DOPC) and sphingomyelin (SM)/cholesterol (Chol) was measured (compound A concentration: 2 μM, lipid concentration: 200 μM). The fluorescence spectrum measurement was carried out using the same instrument as that used in Example 2.

## CCCCCCCCCCCC(=O)c1ccc2cc(N(C)C)ccc2c1 [Laurdan, reference compound]
[1]
  Fluorescence intensity (light stability): ≤ 0.6

## CCCC(=O)/C=C/c1ccc2ccc3c(N4CCCCC4)ccc4ccc1c2c43 [compound A]
[2]
  Staining of human skin tissue: capable of strongly staining the membrane of each cell constituting the human skin tissue
[3]
  cell viability: 93.9%
[1]
  Fluorescence intensity (light stability): the fluorescence intensity was maintained as it was
[4]; DCM
  Fluorescence quantum yield: 86%
  Maximum absorption wavelength: 427 nm
  Maximum fluorescence wavelength: 615 nm
[4]; DMSO
  Fluorescence quantum yield: 79%
  Maximum absorption wavelength: 429 nm
  Maximum fluorescence wavelength: 647 nm
[4]; EtOH
  Fluorescence quantum yield: 20%
  Maximum absorption wavelength: 427 nm
  Maximum fluorescence wavelength: 691 nm
[4]; Toluene
  Fluorescence quantum yield: 82%
  Maximum absorption wavelength: 424 nm
  Maximum fluorescence wavelength: 546 nm
[4]; toluene, dichloromethane, DMSO, ethanol
  Fluorescence solvatochromism: fluorescence solvatochromism sensitive to solvent polarity was observed
[5]
  Fluorescence in cell membrane (plasma membrane) and oil droplets (lipid droplet): strong fluorescence was observed in the green channel
[6]; DOPC liposome
  Fluorescence quantum yield: 37%
  Maximum fluorescence wavelength: 603 nm
[6]; SM/Chol liposome
  Fluorescence quantum yield: 72%
  Maximum fluorescence wavelength: 577 nm
